Data published in patent publication US20170049739A1, “PROSTACYCLIN COMPOUNDS, COMPOSITIONS AND METHODS OF USE THEREOF” (INSMED INCORPORATED, priority 2013, published 2017).
Entries after “also recorded” stand apart in the source; their conditions may differ. Each block holds one compound with its values, some of them ahead of it.

Tests used:
[1] = physchem; settings: organic solvent or mixture, thermodynamic from solid
Protocol: Selected treprostinil derivatives were evaluated for the use in a metered dose inhaler (MDI).
5 mg of each treprostinil compound was added in a glass bottle. Specific amount of ethanol was added by weight. An MDI valve was crimped to each bottle, and HFA propellant added through the valve to the total volume of 5 mL. Compounds were allowed to dissolve for 24 hours at room temperature. The formulations were assessed visually for solubility. The goal was to estimate the minimum ethanol concentration required to solubilize each compound in propellant.
Soluble samples presented as clear and colorless solutions. […] Non-soluble samples had white precipitate or crystals formed. Ethanol was added as a solubility aid.

[2] = Treprostinil alkyl ester conversion to treprostinil in rat lung tissue homogenate; type: in vitro ADME; settings: 37° C., 200 nM, 10 mg/mL of protein, 4 hours
Protocol: Treprostinil alkyl ester conversion to treprostinil was also measured in the presence of rat, dog and monkey lung tissue homogenate at 37° C. Mere, data were calculated based on fit of exponential increase to the maximum (experiments performed in duplicate). The results of this study are provided below in Table 2A and FIG. 37. […] Both FIG. 37 experiments (left and right graphs) were performed in duplicate and the lines represent nonlinear exponential regression assuming 1 phase decay.

[3] = biological target: T1, EP2 prostanoid receptor (Homo sapiens, UniProt P43116); experiment: GloSensor cAMP assay in CHO-K1 cells co-transfected with the EP2 receptor; type: cell-based; settings: for change of potency with incubation time / release profile: dose response curves at 0.5 to 8 hr incubation
T1 construct: host or cells: CHO-K1 cells, transiently co-transfected with pGloSensor-22F cAMP plasmid and pGEM-3Zf(+)
T1 sequence (P43116 whole entry): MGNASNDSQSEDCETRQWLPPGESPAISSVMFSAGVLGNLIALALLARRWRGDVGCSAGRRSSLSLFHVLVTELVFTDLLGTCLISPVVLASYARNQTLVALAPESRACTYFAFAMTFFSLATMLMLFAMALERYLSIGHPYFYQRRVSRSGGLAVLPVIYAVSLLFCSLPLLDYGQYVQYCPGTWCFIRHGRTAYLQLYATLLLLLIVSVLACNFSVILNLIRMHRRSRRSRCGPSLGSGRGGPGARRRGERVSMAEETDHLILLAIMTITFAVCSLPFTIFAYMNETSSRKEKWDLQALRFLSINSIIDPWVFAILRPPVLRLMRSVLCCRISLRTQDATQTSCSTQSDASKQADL
Text: cAMP is a second messenger involved in signal transduction of G-protein coupled receptors (GPCRs) acting through Ga-s and Ga-i proteins. Because the treprostinil receptor is a GPCR, the assay provides an indication of whether the respective prostacyclin compound (or metabolite thereof) binds its receptor and activates the GPCR cell signaling cascade. The GloSensorTM assay harnesses a genetically modified form of firefly luciferase into which a cAMP-binding protein moiety has been inserted. Upon binding of cAMP, a conformational change is induced leading to increased light output. The EP2 prostanoid receptor was co-transfected with the GloSensorTM plasmid (Promega) into CHG-K1 cells as follows. CHO-K1 cells were harvested when the monoloayer was at 50-90% confluence. First, cells were washed with 5 mL PBS. […] The media was aspirated, and the cell pellet was resuspended in 10 mL of growth media. Cell number was determined using a hemacytometer. Each well of a culture treated 96 […] bottom plate (Costar, Cat #: 3917) was seeded with 1×10^4 cells per 100 μL antibiotic-free growth media. […] For small scale transfections of up to 20 wells, the pGLoSensor-22F cAMP plasmid (Promega, Cat #: E2301) (2 μg): (EP2) (10 ng) (Origene, Cat #: SC126558) : pGEM-3Zf(+) (10 ng) (Promega, Cat #: P2271) ratio was diluted to a final concentration of 12.6 ng/μL (total plasmid) in Opti-MEM I reduced-serum medium (Life Technologies, Cat #: 1985062). Next, 6 μL of FuGENE HD transfection reagent (Promega, Cat #: E2311) was added to 160 μL of diluted plasmid and mixed carefully by gentle pipetting. The complex was incubated at room temperature for 0 to 10 minutes, and then 8 μL of the complex was added per well of a 96 well white assay plate (Costar, Cat #: 3917) and gently mixed without disturbing the cell monolayer. […] Following incubation, cells were treated and analyzed. For larger scale transfections, the aforementioned steps were scaled up accordingly, and cells were frozen following the last incubation. In order to prepare frozen transfected CHO-K1 cells, the media was aspirated from culture flasks and cells were rinsed with 5 mL PBS. […] Cell number was determined using a hemacytometer. The media was aspirated, and the cell pellet was resuspended in freezing media (Millipore, cat #: S-002-5F) at 2.5×10^6 cells/vial. Transfected cells were incubated overnight at -80° C. before transfer to liquid nitrogen for long term storage. […] In preparation for cAMP measurement, the cells were equilibrated with the GloSensor cAMP reagent prior to treatment. For equilibration, the medium was carefully removed from the individual well. Next, 100 μL of equilibration medium (6% v/v of Glosensor Reagent stock solution (Promega, Cat #: E291), 10% FBS (Hyclone, Cat #: SH30071.03) and 88% CO2 independent medium (Life Technologies, Cat #: 18045088)) was added per well of the 96-well plate, and added to the side of each well. The plate was then incubated for 2 hours at room temperature. A first pre-read measurement was taken using a microplate reader (MicroLumat Plus). Plates were incubated for an additional 10 minutes at room temperature, followed by a second pre-read measurement. […] Following treatment, each plate was read every 5 minutes for the duration of the assay using a microplate reader (MicroLumat Plus). In order to determine the fold change in cAMP relative to the control, the transfection efficiency was first determined by dividing the second pre-read measurement by the average of the corresponding pre-read measurements. Next, the normalized relative light units (RLUs) of the samples were determined by dividing the plate read measurement by the transfection efficiency. The fold change in cAMP relative to the control was then determined by dividing the normalized RLU of the samples by the normalized RLU of the control. […] Results from the three highest concentrations are provided at FIG. 3A (10 μM), FIG. 3B (1 μM) and FIG. 3C (0.1 μM). […]

[4] = Particle size characterization of treprostinil compositions (QELS); type: physicochemical; settings: particles of compositions comprising the alkyl ester (FIG. 2)
Protocol: All particle size measurements were performed using a Wyatt Technology Mobius™ Zeta Potential/ Particle Sizing Instrument in Quasi-elastic light scattering (QELS) mode. Composition aiiquots were diluted 10-fold in pre-filtered (0.02 μm pore filter) ultrapure of deionized H2O. Light scattering data was collected and converted into particle size and size distribution using Dynamics® v. […] Reported average particle size diameter is based on the cumulants model, which mathematically fits particle diffusion constants (determined by the raw scattering intensities of particles in a suspension) to obtain the particle size mean and a distribution of particle sizes around the mean diameter.
Particle uniformity was determined using the software-calculated polydispersity (% PD). Polydispersity is defined as the standard deviation of the particle size distribution from the mean particle size value. % PD normalizes the polydispersity to the mean diameter by dividing by the mean size and multiplylng by 100. These parameters indicate whether a particle suspension has one or more size populations of particles (monomodal versus multimodal). […]
Dynamics® polydispersity parameter represents a monodisperse population of particles if % PD≦15. A calculated % PD≧57% represents a polydisperse population of particles.

[5] = Treprostinil pharmacokinetics in anaesthetised, ventilated rats after nebulized dosing; type: in vivo, rat; settings: nebulized solution
Protocol: Male Sprague Dawley rats wrere anaesthetised and prepared with endotracheal tube for ventilation. The right femoral vein was cannulated to facilitate blood collections. Terminal lung samples were taken for analysis only 6 hours after dosing. […] Systemic blood pressure (mSAP), heart rate (HR), and arterial oxygen saturation (SaO2). Physiologic parameters were measured during normoxia (fraction of inspired oxygen [FrO2]=0.21, SaO2 ≈90%) and for 2 to 3 hours during hypoxia (FrO2=0.10, SaO2≈50%).

[6] = test system: cough reflex; experiment: Cough reflex in guinea pigs exposed to aerosols; type: in vivo, guinea pig
Protocol: has the following components: Aerosols were generated with an Ultra-Neb Pro nebulizer (nebulizer output 0.36 mL/min.) that was mixed with inspired air delivered at a rate of 2 L/min. […] Coughs were detected by visual observations, plethysmograph recordings and cough sounds.

[7] = dog, in vivo
Protocol: Twelve beagle dogs of either sex were randomly assigned to different inhaled doses of treprostinil in PBS or the compound of Formula (A) wherein R2=
Formulations were nebulized with an Aeroneb nebulizer (MMAD: 2.5-4 μm) delivered into a 500 ml expansion chamber. Formulations were nebulized for 2 min at ventilator settings of 90 ml/breath, 15 breaths/min (delivered volume=2.7 L) and collected on a filter. Drug amount (μg) on the filter was measured by HPLC to calculate the concentration of drug delivered through the ventilator circuit (μg/L).
Dosimetry was performed in propofol-anesthetized dogs in which nebulized drugs were introduced into a mixing chamber interposed on the inspiratory limb of a canine respirator. Technical trials were performed before each experiment to measure the concentration of drug (μg/L) delivered for each breath. The inhaled drug dose (μg/kg) was calculated using the formula: Inhaled Drug Dose (μg/kg)=Drug Cone. (μg/L)×Minute Ventilation (L/min.)×Time (min.)/Body Weight (kg).
Dosimetry was performed in propofol-anesthetized, artificially ventilated dogs in which nebulized drugs were introduced into a mixing chamber interposed on the inspiratory limb of the respirator. Technical trials were performed before each experiment measuring the concentration of drug (μg/L) per breath, minute ventilation and time required to achieve a targeted pulmonary dose. […] Clinical signs (cough, rapid shallow breathing, emesis and pale gums) were also monitored.

[8] = rat, in vivo
Protocol: Nebulized treprostinil (TRE) solution and treprostinil alkyl ester formulations were administered (at 15 nmol/kg, or […] TRE equivalent) to anaesthetised-ventilated rats (6-hour studies) or to conscious rats by nose-only inhalation (24-hour studies). Blood and lung samples were collected at specified time points. TRE and treprostinil alkyl ester concentrations in blood plasma and lung tissue were measured by HPLC/MS/MS analysis.
Male Sprague Dawley rats were placed in restraining tubes and exposed to nebulised drugs via the Jaeger-NYU Nose-Only Directed-Flow Inhalation Exposure System (CH Technologies, Westwood, N.J.) (FIG. 31), Test articles (6 mL at specific concentration) were nebulised using the Aeroneb nebuliser to deliver a predetermined estimated pulmonary dose. Blood and lung tissue samples were taken at selected times after nebulization of the drags over a 24-hour period.

[9] = Tolerability and pharmacokinetics in rats after 14 consecutive days of inhaled C16-TR (T748); type: in vivo, rat; settings: T748, 0.6-18 μg/kg inhaled
Protocol: Body weights were recorded daily and organ weights (lungs, heart, liver) were measured 24 hr, after the last drug dose.

[10] = nebulized concentration of 30 μg/mL

- solubility at 24 h [1]: < 1000 µg/mL
- solubility at 24 h ([1]; Solubility in HFA-134a with added ethanol): < 1000 µg/mL
- Rate of treprostinil alkyl ester conversion [2]: 0.4 nmOL/h * g of protein
- change of potency with incubation time / release profile [3]: increases with incubation time
- polydispersity (% PD) [4]: around 15 % PD
Compound: CCCCCCCCCCCCCCOC(=O)COc1cccc2c1C[C@H]1C[C@@H](O)[C@H](CC[C@@H](O)CCCCC)[C@H]1C2 [C14-TR, tetradecyl-treprostinil]

- time by which measurable levels of TRE were not seen in the lungs [5]: < 6 h
- time to which measurable levels of TRE were seen in the blood plasma [5]: ≤ 4 h
- exposure concentration consistently evoking cough ([6]; guinea pigs, aerosol 10 min.): ≥ 30 µg/mL
- cough bouts [6, 10]: 1-4
- guinea pigs with cough [6, 10]: 7 of 7
- total number of coughs [6, 10]: 36+9 coughs
- time for which cAMP level was sustained ([3]; 10 μM, FIG. 3A): not exhibited
- Max cAMP level (Fold) ([3]; compositions shown in FIG. 3, 8 hours time course): ~16 Fold
- Max cAMP level (Fold) ([3]; compositions shown in FIG. 4, 5 μM, 8 hours time course): ~14 Fold
- Max cAMP level (Fold) ([3]; effect of nebulization study (FIG. 6), head prints (5 μM)): ~15 Fold
- time by which plasma treprostinil was below the level of quantification ([7]; both, beagle): ≤ 4 h
- treprostinil plasma Cmax relative to similar inhaled doses of T623 ([7]; both, beagle): 15-20 fold
- period over which plasma levels of treprostinil were sustained [7]: disappeared within a few hours
Compound: CCCCC[C@H](O)CC[C@@H]1[C@H]2Cc3cccc(OCC(=O)O)c3C[C@H]2C[C@H]1O [Treprostinil, (1R,2R,3aS,9aS)-[[2,3,3a,4,9,9a-hexahydro-2-hydroxy-1-[(3S)-3-hydroxyoctyl]-1H-benz[f]inden-5-yl]oxy]acetic acid]
- change of potency with incubation time / release profile [3]: potency decreases with increasing incubation time

Compound: hexadecyl-treprostinil [C16-TR]
- release kinetics of treprostinil over 24 hours [8]: independent of dose
- change of potency with incubation time / release profile [3]: increases with incubation time
- ranking of activity of the treprostinil compounds ([3]; unformulated compounds, 10 μM and 5 μM, FIG. 21): C12-TR>C14-TR>5-nonanyl-TR>C16-TR
- adverse clinical signs in the dose-response study [7]: adverse clinical signs were seen in only 1 dog
- tolerability, body weights and organ weights [9]: no tolerability issues or significant changes (relative to PBS) in body weights and organ weights; also recorded: well tolerated
